Results reported in patent US12150940B2, “WASp-protecting small molecules, compositions, methods and uses thereof in the treatment of innate and acquired immune-related disorders or conditions” (BAR ILAN UNIVERSITY, priority 2016, dated 2024).
Peptide text beside a SMILES is read from it. * marks the point of attachment. Cbz = O=C(OCc1ccccc1)*

Assays:
Format in all cases: cell-based, human
WASp = WASp ubiquitylation in Meg-01 cells (immunoprecipitation, anti-ubiquitin blot); conditions: Meg-01 cells after activation, treated vs untreated
Procedure: Freshly-isolated platelets were stimulated with 10 μM of TRAP-6 for the indicated time points, followed by lysis. WIP (FIG. 7A) or WASp (FIG. 7B) were immunoprecipitated from the lysates and analyzed by western blot for co-immunoprecipitation, using anti-WASp, anti-WIP or anti-PKCθ antibodies. WASp immunoprecipitates were immunoblotted for WASp ubiquitylation using anti-ubiquitin (Ub) antibody (FIG. 7C). Ubiquitylated WASp appears as a smear of bands above the MW of 65 kDa with a prominent band at ˜81 kDa. […] Blots are representative of three independent experiments. Meg-01 megakaryocyte cell line was activated in the presence (+) or absence (−) of MG132, followed by lysis (FIG. 7E). WASp ubiquitylation was determined by co-immunoprecipitation analysis as in FIG. 7C. […] PKCθ and WASp protein expression levels were analyzed by western blot with anti-PKCθ and anti-WASp antibodies, and with anti-GAPDH as loading control. Relative protein expression was determined by densitometric analysis and is presented below the corresponding lanes. […]
Insufficient WASp expression in platelets and megakaryocytes is the cause of microthrombocytopenia of WAS/XLT patients (Albert et al 2010, Lutskiy et al, 2007). […] Similarly, reciprocal co-precipitation was detected between WASp and WIP during the first two minutes of activation when WASp was immunoprecipitated (FIG. 7B). […]

[1] = system: WAS−/−/WASp R86C Jurkat T-cells; assay: Lymphocyte activation (CD69, flow cytometry) in WAS−/−/WASp R86C cells; conditions: cells exclusively expressing YFP-WASp R86C, PMA and Ionomycin, vs control
Procedure: 1×10^6 WASp knockout Jurkat T-cell line that expresses only exogenous YFP-WASp harboring the common human WAS and XLT mutation, R86C (WAS−/−/WASp R86C) was pretreated with either negative control or SMC #34. Cells that completely lack WASp expression (WAS^−/−) were also treated with the control. The cells were then stimulated with PMA and Ionomycin. After incubation, the cells were stained with PE-Cy5™-conjugated mouse anti-human CD69 and lymphocyte activation was measured by flow cytometry as described in Experimental procedures. Histogram of negative control versus SMC #34 is presented.
PBMCs or Jurkat cells (about 3×10^5 cells) were incubated for 4 h, at 37° C. with 50 ng/ml PMA and 250 ng/ml lonomycin, or 40 ng/ml PMA and 6 μM Ionomycin, respectively, or left untreated. After incubation, the cells were collected and stained with 1 μg/ml anti-active human LFA-1 antibody (purified from KIM127 hybridoma sup, ATCC Cat #: CRL-2838, Sigma) for 30 min in 37° C., followed by staining with Alexa488-Fluor goat anti-mouse IgG1 secondary antibody (Molecular Probes, Cat #: A-21121), 30 min on ice. Cells were then co-stained with PE-Cy5™-conjugated mouse anti-human CD69 (BD Pharmingen, Cat #: 555532) to measure lymphocyte activation.

[2] = system: WAS−/−/WASp R86C Jurkat T-cells; assay: Lymphocyte migration on ICAM-1/SDF-1α, WAS−/−/WASp R86C cells
Procedure: (§1) WASp knockout Jurkat T-cell lines that express only exogenous YFP-WASp R86C (WAS^−/−/WASp R86C) or Y107C (WAS^−/−/WASp Y107C) were pretreated with SMC #34 in comparison to cells treated with the control. Cells that completely lack WASp expression (WAS^−/−) were also treated with the control. Cellular migration was tracked over a 20-min period on ICAM-1/SDF-1α-coated cover glasses, as described in Experimental procedures.
(§2) Approximately 1×10^5 lymphocytes were seeded over chambered coverslips (LabTek) pre-coated with 6 μg/ml ICAM-1 and 2 μg/ml SDF-1α. Cells were incubated at 37° C., 5% CO2 and DIC images were acquired with the Zeiss Observer Z1 inverted microscope every 5 s for 20 min under a 20× objective lens using Zen software. The random movement (Displacement and velocity) of the cells was automatically tracked and analyzed using TrackMate plugin of ImageJ software. An individual trace was assigned to each of the analyzed cells.

WAS−/− Jurkat T-cells = assay: Lymphocyte migration on ICAM-1/SDF-1α, WAS−/− cells
Procedure: as §1, §2

In the case of `CC(C)C[C@@H](C=O)NC(=O)[C@H](CC(C)C)NC(=O)[C@H](CC(C)C)NC(=O)OCc1ccccc1` [MG132] (Cbz-Leu-Leu-Leu-aldehyde), the WASp ubiquitylation (WASp) is reported as “more intense”.

In the case of `CC1CCCC(C)N1C(=O)CSc1nnc(COc2cccc3cccnc23)o1` (centres unmarked) [SMC #34, 1-(2,6-dimethylpiperidin-1-yl)-2-[[5-(quinolin-8-yloxymethyl)-1,3,4-oxadiazol-2-yl]sulfanyl]ethanone], the “lymphocyte activation (CD69)” value [1] is reported as “upregulation of lymphocyte activation”, the migration ([2]; WAS−/−/WASp R86C cells, vs control) is reported as “significantly increased” and the mean cell displacement ([2]; WAS−/−/WASp R86C, 20 min, mean ± SE) is reported as 53.65±4.88. The migration (WAS−/− Jurkat T-cells) was “completely restored the migration”.
